Data: the CheMixHub viscosity set

Assay: xn = mol fraction of the nth substance listed
Settings: 101 kPa

OCCCO + CS(C)=O
viscosity [mPa·s]
Settings	293.15 K	298.15 K	303.15 K	308.15 K	313.15 K	318.15 K
x1 = 0.0513	2.47	2.13	2.03	1.84	1.7	1.61
x1 = 0.1024	2.88	2.59	2.32	2.09	1.89	1.78
x1 = 0.1534	3.26	2.95	2.63	2.35	2.14	2
x1 = 0.2043	3.74	3.35	2.99	2.67	2.4	2.24
x1 = 0.255	4.29	3.84	3.41	3.02	2.71	2.41
x1 = 0.3056	4.96	4.32	3.8	3.43	3.09	–
x1 = 0.356	5.73	5.04	4.44	3.87	3.47	–
x1 = 0.4064	6.64	5.81	5.05	4.42	3.92	–
x1 = 0.4566	7.69	6.73	5.82	5.05	4.46	–
x1 = 0.5066	9	7.73	6.65	5.81	5.08	–
x1 = 0.5565	10.6	9.09	7.76	6.67	5.81	–
x1 = 0.6063	12.5	10.6	9.02	7.72	6.7	–
x1 = 0.6556	14.7	12.5	10.6	8.96	7.67	–
x1 = 0.7055	17.6	14.8	12.4	10.4	8.88	–
x1 = 0.7549	21	17.6	14.6	12.2	10.3	–
x1 = 0.8042	25.2	21	17.3	14.3	12	–
x1 = 0.8533	30.4	25	20.5	16.8	14	–
x1 = 0.9024	36.5	29.8	24.2	19.7	16.4	–
x1 = 0.9512	43.8	35.5	28.5	23.1	19	–
